What was measured:
Assay type in all cases: physicochemical
[1] = Stability of neat 15(S)-HETE free acid vs sodium salt, four days under ambient air, HPLC (Example 6)
Procedure: 15(S)-HETE free acid and 15(S)-HETE-sodium salt were stored under ambient air for four days and exposed to either a temperature of 40° C. in total darkness, or ambient temperature and 300 foot-candles of light (approximately Standard Fluorescent Room Light). Following the four day exposure, aliquots of the samples were analyzed by HPLC for percent remaining HETE and results are reported in Table 1: […]

[2] = Stability of samples dried from ethanolic stock in amber glass vials at room temperature under ambient atmosphere, HPLC (Example 7); details: for % Remaining: dried film
Source text: Ethanolic stock solutions of 15(S)-HETE free acid and 15(S)-HETE free acid with an approximately equimolar amount of sodium hydroxide (to form the sodium salt in situ) were aliquoted to amber glass vials and dried under a stream of helium. The vials were stored at room temperature under ambient atmosphere. At various times, two vials of each were reconstituted with an aliquot of 50/50 acetonitrile/water and assayed by HPLC for 15(S)-HETE. The results are shown in Table 2 and illustrated in FIG. 1: […]

[3] = Storage stability of 15(S)-HETE-sodium salt as neat solid or as solution in absolute ethanol, HPLC (Example 8)
Procedure: 15(S)-HETE-sodium salt as the neat solid under argon or as solutions in absolute ethanol under ambient atmosphere were stored in amber glass vials in a −20° C. freezer or at room temperature. At various times, the samples were analyzed by HPLC for percent of initial 15(S)-HETE remaining.

## CCCCC[C@H](O)/C=C/C=C\C/C=C\C/C=C\CCCC(=O)O [15(S)-HETE-free acid, 15(S)-HETE free acid, reference compound]
[1]; 40° C., dark
  % of Initial Amount Remaining: 0%
[1]; ambient temp., 300 F-C light
  % of Initial Amount Remaining: 2%
[2]; 0 hours
  % Remaining: 100%
[2]; 5 hours
  % Remaining: 4%
[2]; 24 hours
  % Remaining: 0%
[2]; 55 hours
  % Remaining: 0%
[2]; 72 hours
  % Remaining: 0%

## CCCCC[C@H](O)/C=C/C=C\C/C=C\C/C=C\CCCC(=O)[O-].[Na+] [15(S)-HETE-sodium salt, 5,8,11,13-Eicosatetraenoic acid, 15-hydroxy-[15S-(5Z,8Z,11Z,13E)]-sodium salt]
[1]; 40° C., dark
  % of Initial Amount Remaining: 86%
[1]; ambient temp., 300 F-C light
  % of Initial Amount Remaining: 58%
[2]; 0 hours
  % Remaining: 100%
[2]; 5 hours
  % Remaining: 94%
[2]; 24 hours
  % Remaining: 79%
[2]; 55 hours
  % Remaining: 66%
[2]; 72 hours
  % Remaining: 65%
[2]; up to 72 hours
  stability relative to the corresponding free acid (in words): more stable than the corresponding free acid
[3]; 1 mg/mL in absolute ethanol, ambient atmosphere, room temp., 2.0 weeks
  % of Initial: 101%
[3]; 1 mg/mL in absolute ethanol, ambient atmosphere, room temp., 4.4 weeks
  % of Initial: 101%
[3]; 1 mg/mL in absolute ethanol, ambient atmosphere, room temp., 6.0 weeks
  % of Initial: 101%
[3]; 1 mg/mL in absolute ethanol, ambient atmosphere, room temp., 8.4 weeks
  % of Initial: 101%
[3]; 1 mg/mL in absolute ethanol, ambient atmosphere, −20° C. freezer, 2.0 weeks
  % of Initial: 102%
[3]; 1 mg/mL in absolute ethanol, ambient atmosphere, −20° C. freezer, 4.4 weeks
  % of Initial: 102%
[3]; 1 mg/mL in absolute ethanol, ambient atmosphere, −20° C. freezer, 6.0 weeks
  % of Initial: 101%
[3]; 1 mg/mL in absolute ethanol, ambient atmosphere, −20° C. freezer, 8.4 weeks
  % of Initial: 101%
[3]; 10 mg/mL in absolute ethanol, ambient atmosphere, room temp., 2.0 weeks
  % of Initial: 101%
[3]; 10 mg/mL in absolute ethanol, ambient atmosphere, room temp., 4.4 weeks
  % of Initial: 101%
[3]; 10 mg/mL in absolute ethanol, ambient atmosphere, room temp., 6.0 weeks
  % of Initial: 101%
[3]; 10 mg/mL in absolute ethanol, ambient atmosphere, room temp., 8.4 weeks
  % of Initial: 100%
[3]; 10 mg/mL in absolute ethanol, ambient atmosphere, −20° C. freezer, 2.0 weeks
  % of Initial: 101%
[3]; 10 mg/mL in absolute ethanol, ambient atmosphere, −20° C. freezer, 4.4 weeks
  % of Initial: 102%
[3]; 10 mg/mL in absolute ethanol, ambient atmosphere, −20° C. freezer, 6.0 weeks
  % of Initial: 101%
[3]; 10 mg/mL in absolute ethanol, ambient atmosphere, −20° C. freezer, 8.4 weeks
  % of Initial: 101%
[3]; solid under argon, room temp., 2.0 weeks
  % of Initial: 72%
[3]; solid under argon, room temp., 4.4 weeks
  % of Initial: 61%
[3]; solid under argon, room temp., 6.0 weeks
  % of Initial: 42%
[3]; solid under argon, room temp., 8.4 weeks
  % of Initial: 28%
[3]; solid under argon, −20° C. freezer, 2.0 weeks
  % of Initial: 99%
[3]; solid under argon, −20° C. freezer, 4.4 weeks
  % of Initial: 97%
[3]; solid under argon, −20° C. freezer, 6.0 weeks
  % of Initial: 95%
[3]; solid under argon, −20° C. freezer, 8.4 weeks
  % of Initial: 92%
